Source: patent US8227409B2, “Diketopiperazine microparticles with defined isomer contents” (MannKind Corporation, priority 2009, dated 2012)

Columns and labels:
[1] = Laser diffraction of powder emitted from dry powder inhalers: VMGD and container emptying; type: physicochemical; settings: 56% trans, SSA 55, pressure drop 4 kPa
Description: Laser diffraction of dry powder formulations emitted from dry powder inhalers is a common methodology employed to characterize the level of de-agglomeration subjected to a powder. The methodology indicates a measure of geometric size rather than aerodynamic size as occurring in industry standard impaction methodologies. Typically, the geometric size of the emitted powder includes a volumetric distribution characterized by the median particle size, VMGD. Importantly, geometric sizes of the emitted particles are discerned with heightened resolution as compared to the aerodynamic sizes provided by impaction methods. Smaller sizes are preferred and result in greater likelihood of individual particles being delivered to the pulmonary tract. Thus, differences in inhaler de-agglomeration and ultimate performance can be easier to resolve with diffraction. In these experiments, inhalers were tested with laser diffraction at pressures analogous to actual patient inspiratory capacities to determine the effectiveness of the inhalation system to de-agglomerate powder formulations. Specifically, the formulations included cohesive diketopiperazine powders with an active insulin loaded ingredient and without. […] Reported in Table 6 are a VMGD and an efficiency of the container emptying during the testing. FDKP powders have an approximate Carr's index of 50 and TI powder has an approximate Carr's index of 40.

[2] = Solubility (stated in words); type: physicochemical

Q: Which results are given for O=C(O)/C=C/C(=O)NCCCCC1NC(=O)C(CCCCNC(=O)/C=C/C(=O)O)NC1=O (stereo not drawn) [FDKP, 2,5-diketo-3,6-bis(N-fumaryl-4-aminobutyl)piperazine]?
A: % CE ([1]; DPI 2): 92.5%; VMGD ([1]; DPI 2): 6.800 micron; % CE ([1]; MedTone): 89.5%; VMGD ([1]; MedTone): 21.200 micron; solubility ([2]; at neutral or basic pH): readily soluble; solubility ([2]; in acid): low solubility
